#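 Briefly, cells in 96-well plates were exposed to five compound concentrations for 48 h, and endpoints were estimated by linear interpolation. Here, GI50 denotes the concentration required for 50% inhibition of growth.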 Calls of active or inactive are those of the source. Cut-off read from the data, not from the text of the source: active = GI50 up to about 1.1 µM and inactive = higher.
# Legend:
# Test in all cases: NCI tumour cell line growth inhibition, 48 h
# NCI-H460 = system: NCI-H460
# SNB-75 = system: SNB-75
# HCT-116 = system: HCT-116
# SF-268 = system: SF-268
# HCC 2998 = system: HCC 2998
# OVCAR-3 = system: OVCAR-3
# SK-MEL-5 = system: SK-MEL-5
# OVCAR-4 = system: OVCAR-4
# DMS-273 = system: DMS-273
# A498 = system: A498
# SNB-19 = system: SNB-19
# UACC-62 = system: UACC-62
# KM-20L2 = system: KM-20L2
# CCRF-CEM = system: CCRF-CEM
# K562 = system: K562
# UO-31 = system: UO-31
# NCI-H226 = system: NCI-H226
# NCI-H522 = system: NCI-H522
# SW-620 = system: SW-620
# SK-MEL-2 = system: SK-MEL-2
# COLO 205 = system: COLO 205
# A549 = system: A549
# EKVX = system: EKVX
# UACC-257 = system: UACC-257
# MCF7 = system: MCF7
# SK-MEL-28 = system: SK-MEL-28
# U-251 = system: U-251
# Malme-3M = system: Malme-3M
# HOP-92 = system: HOP-92
# HL-60 = system: HL-60
# CAKI-1 = system: CAKI-1
# DMS-114 = system: DMS-114
# OVCAR-8 = system: OVCAR-8
# SN12C = system: SN12C
# HT-29 = system: HT-29
# HOP-62 = system: HOP-62
# OVCAR-5 = system: OVCAR-5
# NCI/ADR-RES = system: NCI/ADR-RES
# SF-295 = system: SF-295
# IGROV-1 = system: IGROV-1
# KM12 = system: KM12
# HCT-15 = system: HCT-15
# MOLT-4 = system: MOLT-4
# SNB-78 = system: SNB-78
# M19-MEL = system: M19-MEL
# SF-539 = system: SF-539
# DLD-1 = system: DLD-1
# SK-OV-3 = system: SK-OV-3
# RPMI-8226 = system: RPMI-8226
# NCI-H23 = system: NCI-H23
# HOP-18 = system: HOP-18
# RXF 393 = system: RXF 393
# LOX IMVI = system: LOX IMVI
# T47D = system: T47D
# SR = system: SR
# MDA-N = system: MDA-N
# LXFL 529 = system: LXFL 529
# ACHN = system: ACHN
# TK-10 = system: TK-10
# DU-145 = system: DU-145
# MDA-MB-231 = system: MDA-MB-231
# PC-3 = system: PC-3
# BT-549 = system: BT-549
# M14 = system: M14
# MDA-MB-435 = system: MDA-MB-435
# Hs-578T = system: Hs-578T
# 786-0 = system: 786-0
structure (smiles),measurement,setting,value
NC(Cc1c[nH]c2ccccc12)C(=O)O (stereo not drawn) [DL-TRYPTOPHAN],GI50,NCI-H460,> 300 µM (inactive)
same,GI50,SNB-75,> 300 µM (inactive)
same,GI50,HCT-116,> 300 µM (inactive)
same,GI50,SF-268,> 300 µM (inactive)
same,GI50,HCC 2998,> 300 µM (inactive)
same,GI50,OVCAR-3,> 300 µM (inactive)
same,GI50,SK-MEL-5,> 300 µM (inactive)
same,GI50,OVCAR-4,> 300 µM (inactive)
same,GI50,DMS-273,> 300 µM (inactive)
same,GI50,A498,> 13.9 µM (inactive)
same,GI50,SNB-19,> 300 µM (inactive)
same,GI50,UACC-62,> 300 µM (inactive)
same,GI50,KM-20L2,> 300 µM (inactive)
same,GI50,CCRF-CEM,> 300 µM (inactive)
same,GI50,K562,204 µM (inactive)
same,GI50,UO-31,> 300 µM (inactive)
same,GI50,NCI-H226,30 µM (inactive)
same,GI50,NCI-H522,> 300 µM (inactive)
same,GI50,SW-620,> 300 µM (inactive)
same,GI50,SK-MEL-2,> 300 µM (inactive)
same,GI50,COLO 205,> 300 µM (inactive)
same,GI50,A549,> 300 µM (inactive)
same,GI50,EKVX,> 300 µM (inactive)
same,GI50,UACC-257,> 300 µM (inactive)
same,GI50,MCF7,> 300 µM (inactive)
same,GI50,SK-MEL-28,> 300 µM (inactive)
same,GI50,U-251,> 300 µM (inactive)
same,GI50,Malme-3M,> 300 µM (inactive)
same,GI50,HOP-92,> 300 µM (inactive)
same,GI50,HL-60,> 300 µM (inactive)
same,GI50,CAKI-1,> 300 µM (inactive)
same,GI50,DMS-114,> 300 µM (inactive)
same,GI50,OVCAR-8,231 µM (inactive)
same,GI50,SN12C,3.74 µM (inactive)
same,GI50,HT-29,> 300 µM (inactive)
same,GI50,HOP-62,> 300 µM (inactive)
same,GI50,OVCAR-5,> 300 µM (inactive)
same,GI50,NCI/ADR-RES,> 300 µM (inactive)
same,GI50,SF-295,> 300 µM (inactive)
same,GI50,IGROV-1,> 300 µM (inactive)
same,GI50,KM12,> 300 µM (inactive)
same,GI50,HCT-15,64.6 µM
same,GI50,MOLT-4,> 300 µM (inactive)
same,GI50,SNB-78,> 300 µM (inactive)
same,GI50,M19-MEL,> 300 µM (inactive)
same,GI50,SF-539,> 300 µM (inactive)
same,GI50,DLD-1,> 300 µM (inactive)
same,GI50,SK-OV-3,> 300 µM (inactive)
same,GI50,RPMI-8226,> 300 µM (inactive)
same,GI50,NCI-H23,> 300 µM (inactive)
same,GI50,HOP-18,54.1 µM (inactive)
same,GI50,RXF 393,> 300 µM (inactive)
same,GI50,LOX IMVI,> 300 µM (inactive)
CC(C)(C)C(=O)OCC1C(=O)OCC1C(=O)N1Cc2cc3ccccc3nc2C1 (stereo not given),GI50,NCI-H460,3.93 µM (inactive)
same,GI50,SNB-75,7.74 µM (inactive)
same,GI50,HCT-116,2.09 µM (inactive)
same,GI50,T47D,2.38 µM (inactive)
same,GI50,SF-268,8.91 µM (inactive)
same,GI50,SR,0.757 µM (active)
same,GI50,HCC 2998,15.5 µM (inactive)
same,GI50,OVCAR-3,4.07 µM (inactive)
same,GI50,SK-MEL-5,15.2 µM (inactive)
same,GI50,OVCAR-4,2.38 µM (inactive)
same,GI50,DMS-273,3.04 µM (inactive)
same,GI50,A498,13.2 µM (inactive)
same,GI50,SNB-19,18.3 µM (inactive)
same,GI50,UACC-62,4.51 µM (inactive)
same,GI50,KM-20L2,6.07 µM (inactive)
same,GI50,CCRF-CEM,0.711 µM (active)
same,GI50,MDA-N,3.83 µM (inactive)
same,GI50,K562,0.728 µM (active)
same,GI50,UO-31,2.47 µM (inactive)
same,GI50,NCI-H226,6.56 µM (inactive)
same,GI50,LXFL 529,1.47 µM (inactive)
same,GI50,NCI-H522,0.569 µM (active)
same,GI50,SW-620,1.57 µM (inactive)
same,GI50,ACHN,2.36 µM (inactive)
same,GI50,TK-10,2.15 µM (inactive)
same,GI50,SK-MEL-2,8.59 µM (inactive)
same,GI50,COLO 205,0.957 µM (active)
same,GI50,A549,15.2 µM (inactive)
same,GI50,EKVX,7.41 µM (inactive)
same,GI50,UACC-257,4.42 µM (inactive)
same,GI50,DU-145,16.4 µM (inactive)
same,GI50,MDA-MB-231,4.62 µM (inactive)
same,GI50,MCF7,3.47 µM (inactive)
same,GI50,PC-3,10.9 µM (inactive)
same,GI50,BT-549,3.14 µM (inactive)
same,GI50,SK-MEL-28,3.21 µM (inactive)
same,GI50,U-251,9.2 µM (inactive)
same,GI50,Malme-3M,1.46 µM (inactive)
same,GI50,HOP-92,1.5 µM (inactive)
same,GI50,HL-60,0.748 µM (active)
same,GI50,CAKI-1,1.28 µM (inactive)
same,GI50,DMS-114,4.81 µM (inactive)
same,GI50,OVCAR-8,3.99 µM (inactive)
same,GI50,SN12C,5.28 µM (inactive)
same,GI50,HT-29,3.5 µM (inactive)
same,GI50,HOP-62,14.4 µM (inactive)
same,GI50,OVCAR-5,10.5 µM (inactive)
same,GI50,M14,2.8 µM (inactive)
same,GI50,NCI/ADR-RES,4.92 µM (inactive)
same,GI50,SF-295,14.3 µM (inactive)
same,GI50,IGROV-1,15 µM (inactive)
same,GI50,MDA-MB-435,3.9 µM (inactive)
same,GI50,KM12,15.8 µM (inactive)
same,GI50,HCT-15,1.75 µM
same,GI50,MOLT-4,1.06 µM (active)
same,GI50,SNB-78,1.53 µM (inactive)
same,GI50,Hs-578T,15.3 µM (inactive)
same,GI50,M19-MEL,3.54 µM (inactive)
same,GI50,SF-539,4.46 µM (inactive)
same,GI50,DLD-1,1.55 µM (inactive)
same,GI50,SK-OV-3,16.1 µM (inactive)
same,GI50,RPMI-8226,1.31 µM (inactive)
same,GI50,NCI-H23,4.55 µM (inactive)
same,GI50,HOP-18,2.61 µM (inactive)
same,GI50,786-0,2.5 µM (inactive)
same,GI50,RXF 393,1.5 µM (inactive)
same,GI50,LOX IMVI,4.34 µM (inactive)
